Assay results: patent publication US8222270B2 (Medicis Pharmaceutical Corporation, priority 2008, dated 2012)

Legend:
[1] = Acute dermal toxicity under occlusion
[2] = Topical pharmacokinetics, 5 mg/kg three times per week for 4 weeks; details: rat, in vivo
[3] = Stability of calibration standards in spent receiver fluid; type: physicochemical; details: vs T = 0

## CC(C)Cn1cnc2c(N)nc3ccccc3c21 [imiquimod, 1-(2-methylpropyl)-1H-imidazo[4,5-c]quinolin-4-amine]
[1]; rabbit, in vivo
  Dermal lethal dose: greater than 5000 mg/kg
[1]; rabbit, in vivo, topical, 5000 mg/kg
  LD50: > 5000 mg/kg
[1]; unformulated, under occlusion, 5000 mg/kg
  Acute dermal toxicity: did not reveal any toxic effects
[2]
  Imiquimod in serum: not quantifiable
[3]; Standard 5.275 μg/ml, Epidermal sheet + placebo, 37° C.
  48 h % recovered in Spent receiver fluid: 86.828%
[3]; Standard 5.275 μg/ml, Epidermal sheet + placebo, Fridge
  48 h % recovered in Spent receiver fluid: 88.881%
[3]; Standard 5.275 μg/ml, Epidermal sheet + placebo, RT
  48 h % recovered in Spent receiver fluid: 86.540%
[3]; Standard 5.275 μg/ml, Epidermal sheet, 37° C.
  48 h % recovered in Spent receiver fluid: 85.995%
[3]; Standard 5.275 μg/ml, Epidermal sheet, Fridge
  48 h % recovered in Spent receiver fluid: 88.938%
[3]; Standard 5.275 μg/ml, Epidermal sheet, RT
  48 h % recovered in Spent receiver fluid: 91.447%
[3]; Standard 5.275 μg/ml, Full thickness + placebo, 37° C.
  48 h % recovered in Spent receiver fluid: 86.134%
[3]; Standard 5.275 μg/ml, Full thickness + placebo, Fridge
  48 h % recovered in Spent receiver fluid: 90.260%
[3]; Standard 5.275 μg/ml, Full thickness + placebo, RT
  48 h % recovered in Spent receiver fluid: 87.973%
[3]; Standard 5.275 μg/ml, Full thickness, 37° C.
  48 h % recovered in Spent receiver fluid: 90.611%
[3]; Standard 5.275 μg/ml, Full thickness, Fridge
  48 h % recovered in Spent receiver fluid: 94.586%
[3]; Standard 5.275 μg/ml, Full thickness, RT
  48 h % recovered in Spent receiver fluid: 95.232%
[3]; Standard 42.2 μg/ml, Epidermal sheet + placebo, 37° C.
  48 h % recovered in Spent receiver fluid: 95.095%
[3]; Standard 42.2 μg/ml, Epidermal sheet + placebo, Fridge
  48 h % recovered in Spent receiver fluid: 93.077%
[3]; Standard 42.2 μg/ml, Epidermal sheet + placebo, RT
  48 h % recovered in Spent receiver fluid: 92.904%
[3]; Standard 42.2 μg/ml, Epidermal sheet, 37° C.
  48 h % recovered in Spent receiver fluid: 89.641%
[3]; Standard 42.2 μg/ml, Epidermal sheet, Fridge
  48 h % recovered in Spent receiver fluid: 85.716%
[3]; Standard 42.2 μg/ml, Epidermal sheet, RT
  48 h % recovered in Spent receiver fluid: 86.340%
[3]; Standard 42.2 μg/ml, Full thickness + placebo, 37° C.
  48 h % recovered in Spent receiver fluid: 86.439%
[3]; Standard 42.2 μg/ml, Full thickness + placebo, Fridge
  48 h % recovered in Spent receiver fluid: 83.976%
[3]; Standard 42.2 μg/ml, Full thickness + placebo, RT
  48 h % recovered in Spent receiver fluid: 84.144%
[3]; Standard 42.2 μg/ml, Full thickness, 37° C.
  48 h % recovered in Spent receiver fluid: 95.939%
[3]; Standard 42.2 μg/ml, Full thickness, Fridge
  48 h % recovered in Spent receiver fluid: 95.103%
[3]; Standard 42.2 μg/ml, Full thickness, RT
  48 h % recovered in Spent receiver fluid: 95.805%
[3]; Standard 52.75 μg/ml, Epidermal sheet + placebo, 37° C.
  48 h % recovered in Spent receiver fluid: 86.906%
[3]; Standard 52.75 μg/ml, Epidermal sheet + placebo, Fridge
  48 h % recovered in Spent receiver fluid: 85.635%
[3]; Standard 52.75 μg/ml, Epidermal sheet + placebo, RT
  48 h % recovered in Spent receiver fluid: 88.169%
[3]; Standard 52.75 μg/ml, Epidermal sheet, 37° C.
  48 h % recovered in Spent receiver fluid: 90.943%
[3]; Standard 52.75 μg/ml, Epidermal sheet, Fridge
  48 h % recovered in Spent receiver fluid: 87.669%
[3]; Standard 52.75 μg/ml, Epidermal sheet, RT
  48 h % recovered in Spent receiver fluid: 89.096%
[3]; Standard 52.75 μg/ml, Full thickness + placebo, 37° C.
  48 h % recovered in Spent receiver fluid: 93.779%
[3]; Standard 52.75 μg/ml, Full thickness + placebo, Fridge
  48 h % recovered in Spent receiver fluid: 91.776%
[3]; Standard 52.75 μg/ml, Full thickness + placebo, RT
  48 h % recovered in Spent receiver fluid: 92.027%
[3]; Standard 52.75 μg/ml, Full thickness, 37° C.
  48 h % recovered in Spent receiver fluid: 95.282%
[3]; Standard 52.75 μg/ml, Full thickness, Fridge
  48 h % recovered in Spent receiver fluid: 92.317%
[3]; Standard 52.75 μg/ml, Full thickness, RT
  48 h % recovered in Spent receiver fluid: 92.152%
[3]; Standard 84.4 μg/ml, Epidermal sheet + placebo, 37° C.
  48 h % recovered in Spent receiver fluid: 98.178%
[3]; Standard 84.4 μg/ml, Epidermal sheet + placebo, Fridge
  48 h % recovered in Spent receiver fluid: 95.620%
[3]; Standard 84.4 μg/ml, Epidermal sheet + placebo, RT
  48 h % recovered in Spent receiver fluid: 96.033%
[3]; Standard 84.4 μg/ml, Epidermal sheet, 37° C.
  48 h % recovered in Spent receiver fluid: 82.694%
[3]; Standard 84.4 μg/ml, Epidermal sheet, Fridge
  48 h % recovered in Spent receiver fluid: 81.350%
[3]; Standard 84.4 μg/ml, Epidermal sheet, RT
  48 h % recovered in Spent receiver fluid: 82.276%
[3]; Standard 84.4 μg/ml, Full thickness + placebo, 37° C.
  48 h % recovered in Spent receiver fluid: 85.629%
[3]; Standard 84.4 μg/ml, Full thickness + placebo, Fridge
  48 h % recovered in Spent receiver fluid: 84.561%
[3]; Standard 84.4 μg/ml, Full thickness + placebo, RT
  48 h % recovered in Spent receiver fluid: 84.421%
[3]; Standard 84.4 μg/ml, Full thickness, 37° C.
  48 h % recovered in Spent receiver fluid: 101.010%
[3]; Standard 84.4 μg/ml, Full thickness, Fridge
  48 h % recovered in Spent receiver fluid: 98.841%
[3]; Standard 84.4 μg/ml, Full thickness, RT
  48 h % recovered in Spent receiver fluid: 99.790%
[3]; Standard 105.5 μg/ml, Epidermal sheet + placebo, 37° C.
  48 h % recovered in Spent receiver fluid: 84.903%
[3]; Standard 105.5 μg/ml, Epidermal sheet + placebo, Fridge
  48 h % recovered in Spent receiver fluid: 83.833%
[3]; Standard 105.5 μg/ml, Epidermal sheet + placebo, RT
  48 h % recovered in Spent receiver fluid: 84.515%
[3]; Standard 105.5 μg/ml, Epidermal sheet, 37° C.
  48 h % recovered in Spent receiver fluid: 91.501%
